Results from ChEMBL document CHEMBL4507274 (2021).
Calls of active or inactive are those of the source. The rule behind the calls is not given here.

Assays:
[1] = test system: Epidermal growth factor receptor (Homo sapiens), P00533 [L858R,T790M]; conditions: Compound concentration 100.0 nM
[2] = Mechanistic tissue assay (arteria saphena rabbit); assay type: tissue-based, Oryctolagus cuniculus, Saphenous artery
[3] = target: Mitogen-activated protein kinase 1 (Homo sapiens) (UniProt P28482); assay: MAPK2 (h) Upstate kinase activity assay; conditions: Compound concentration 10.0 uM
Mitogen-activated protein kinase 1 (Homo sapiens), sequence (P28482 whole entry): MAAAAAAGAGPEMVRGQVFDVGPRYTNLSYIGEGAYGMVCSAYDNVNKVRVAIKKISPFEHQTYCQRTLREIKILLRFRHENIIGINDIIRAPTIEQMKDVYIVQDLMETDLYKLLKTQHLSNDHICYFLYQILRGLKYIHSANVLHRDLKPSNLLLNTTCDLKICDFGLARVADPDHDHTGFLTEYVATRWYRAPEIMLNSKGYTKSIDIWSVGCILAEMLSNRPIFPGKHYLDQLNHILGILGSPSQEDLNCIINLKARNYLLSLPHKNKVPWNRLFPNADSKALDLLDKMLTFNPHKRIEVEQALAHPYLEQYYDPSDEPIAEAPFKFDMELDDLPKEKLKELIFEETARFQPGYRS

[4] = target: Ribosomal protein S6 kinase alpha-3 (Homo sapiens) (UniProt P51812); assay: Rsk2 (h) Upstate kinase activity assay; conditions: Compound concentration 10.0 uM
Ribosomal protein S6 kinase alpha-3 (Homo sapiens), sequence (P51812 whole entry): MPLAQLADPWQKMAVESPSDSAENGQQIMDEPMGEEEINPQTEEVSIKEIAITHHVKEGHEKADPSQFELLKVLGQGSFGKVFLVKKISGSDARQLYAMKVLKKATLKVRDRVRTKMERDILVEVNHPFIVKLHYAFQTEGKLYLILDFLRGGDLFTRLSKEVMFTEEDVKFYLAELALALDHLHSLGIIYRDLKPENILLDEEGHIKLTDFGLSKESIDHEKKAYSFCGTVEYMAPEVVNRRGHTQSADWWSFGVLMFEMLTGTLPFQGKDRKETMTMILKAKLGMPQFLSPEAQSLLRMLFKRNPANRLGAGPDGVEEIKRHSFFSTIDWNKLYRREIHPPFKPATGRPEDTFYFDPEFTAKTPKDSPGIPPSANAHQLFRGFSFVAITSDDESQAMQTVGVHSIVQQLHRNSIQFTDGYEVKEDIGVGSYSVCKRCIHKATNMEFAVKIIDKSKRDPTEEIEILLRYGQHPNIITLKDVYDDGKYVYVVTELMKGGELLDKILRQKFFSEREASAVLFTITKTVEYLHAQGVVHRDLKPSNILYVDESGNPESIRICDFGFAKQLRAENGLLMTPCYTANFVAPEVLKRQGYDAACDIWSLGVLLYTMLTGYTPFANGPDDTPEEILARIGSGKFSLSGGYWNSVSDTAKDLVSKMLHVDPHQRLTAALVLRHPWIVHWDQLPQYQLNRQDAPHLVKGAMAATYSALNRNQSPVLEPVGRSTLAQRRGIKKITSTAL

[5] = target: Mitogen-activated protein kinase 9 (Homo sapiens) (UniProt P45984); assay: JNK2alpha2 (h) Upstate kinase activity assay; conditions: Compound concentration 10.0 uM
Mitogen-activated protein kinase 9 (Homo sapiens), sequence (P45984 whole entry, looked up): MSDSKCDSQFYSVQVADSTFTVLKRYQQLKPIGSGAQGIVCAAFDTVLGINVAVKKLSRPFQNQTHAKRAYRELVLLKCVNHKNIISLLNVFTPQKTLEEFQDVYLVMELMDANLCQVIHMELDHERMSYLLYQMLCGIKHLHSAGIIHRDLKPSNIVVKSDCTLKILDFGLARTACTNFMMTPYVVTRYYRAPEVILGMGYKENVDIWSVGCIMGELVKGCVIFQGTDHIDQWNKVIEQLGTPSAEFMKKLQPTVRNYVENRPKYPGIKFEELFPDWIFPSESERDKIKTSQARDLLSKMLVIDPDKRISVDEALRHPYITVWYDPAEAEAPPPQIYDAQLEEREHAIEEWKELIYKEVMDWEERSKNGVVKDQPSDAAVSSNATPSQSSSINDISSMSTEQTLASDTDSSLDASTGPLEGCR

[6] = target: T1, Protein kinase C epsilon type (Homo sapiens) (UniProt Q02156); assay: PKCepsilon (h) Upstate kinase activity assay; conditions: Compound concentration 10.0 uM
T1 sequence (whole entry): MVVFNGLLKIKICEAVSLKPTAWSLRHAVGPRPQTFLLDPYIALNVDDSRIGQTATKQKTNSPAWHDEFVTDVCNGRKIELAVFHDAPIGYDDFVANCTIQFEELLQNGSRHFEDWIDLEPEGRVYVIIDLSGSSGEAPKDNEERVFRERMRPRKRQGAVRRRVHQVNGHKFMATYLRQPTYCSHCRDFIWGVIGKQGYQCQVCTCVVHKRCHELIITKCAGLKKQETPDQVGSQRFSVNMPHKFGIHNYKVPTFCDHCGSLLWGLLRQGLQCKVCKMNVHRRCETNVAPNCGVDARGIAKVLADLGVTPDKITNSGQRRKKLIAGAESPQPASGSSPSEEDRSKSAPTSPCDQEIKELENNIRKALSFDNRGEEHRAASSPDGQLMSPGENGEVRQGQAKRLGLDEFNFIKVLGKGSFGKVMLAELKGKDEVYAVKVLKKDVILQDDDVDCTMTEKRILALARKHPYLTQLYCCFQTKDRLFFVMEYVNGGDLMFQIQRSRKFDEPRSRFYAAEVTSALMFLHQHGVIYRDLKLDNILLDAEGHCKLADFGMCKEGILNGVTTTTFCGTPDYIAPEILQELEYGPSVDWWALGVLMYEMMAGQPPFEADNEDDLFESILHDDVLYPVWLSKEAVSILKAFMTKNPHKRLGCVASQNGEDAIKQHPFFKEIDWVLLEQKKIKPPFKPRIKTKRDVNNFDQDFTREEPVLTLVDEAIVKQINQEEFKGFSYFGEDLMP

PANC-1 = assay: Pancreas PANC-1 cell line MDS Pharma Services Proliferation Assay; assay type: functional, cell-based, Homo sapiens
[7] = target: Tyrosine-protein kinase ABL1 (Mus musculus) (UniProt P00520); assay: Abl (m) Upstate kinase activity assay; conditions: Compound concentration 10.0 uM
[8] = target: Casein kinase I isoform delta (Homo sapiens) (UniProt P48730); assay: CK1delta (h) Upstate kinase activity assay; conditions: Compound concentration 10.0 uM
Casein kinase I isoform delta (Homo sapiens), sequence (P48730 whole entry, looked up, canonical isoform): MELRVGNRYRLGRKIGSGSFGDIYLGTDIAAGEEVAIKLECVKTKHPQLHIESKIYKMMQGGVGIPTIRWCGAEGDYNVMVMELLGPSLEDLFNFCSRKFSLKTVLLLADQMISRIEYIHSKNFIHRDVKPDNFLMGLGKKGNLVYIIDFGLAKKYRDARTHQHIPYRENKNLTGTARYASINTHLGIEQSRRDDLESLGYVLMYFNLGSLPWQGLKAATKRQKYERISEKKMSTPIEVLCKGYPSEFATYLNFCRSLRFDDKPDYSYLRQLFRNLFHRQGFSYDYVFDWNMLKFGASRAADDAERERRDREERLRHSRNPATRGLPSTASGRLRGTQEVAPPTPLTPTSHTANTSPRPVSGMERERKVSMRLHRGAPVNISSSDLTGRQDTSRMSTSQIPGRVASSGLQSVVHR

[9] = target: Cyclin-dependent kinase 3 (Homo sapiens) (UniProt Q00526); assay: CDK3/ cyclin E (h) Upstate kinase activity assay; conditions: Compound concentration 10.0 uM
[10] = target: Glycogen synthase kinase-3 beta (Homo sapiens) (UniProt P49841); assay: GSK3beta (h) Upstate kinase activity assay; conditions: Compound concentration 10.0 uM
Glycogen synthase kinase-3 beta (Homo sapiens), sequence (P49841 whole entry, looked up): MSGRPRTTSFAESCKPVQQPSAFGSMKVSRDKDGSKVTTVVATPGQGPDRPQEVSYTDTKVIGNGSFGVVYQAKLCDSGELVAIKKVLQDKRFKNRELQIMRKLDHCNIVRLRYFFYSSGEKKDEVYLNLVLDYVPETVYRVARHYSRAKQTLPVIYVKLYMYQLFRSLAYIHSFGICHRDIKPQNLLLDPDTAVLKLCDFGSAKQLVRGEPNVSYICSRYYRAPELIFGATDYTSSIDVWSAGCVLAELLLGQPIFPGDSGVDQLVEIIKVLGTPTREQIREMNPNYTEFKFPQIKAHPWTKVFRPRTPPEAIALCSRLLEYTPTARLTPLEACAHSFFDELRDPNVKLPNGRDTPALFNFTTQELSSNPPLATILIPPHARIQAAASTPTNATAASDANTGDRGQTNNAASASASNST

[11] = target: MAP kinase-activated protein kinase 2 (Homo sapiens) (UniProt P49137); assay: MAPKAP-K2 (h) Upstate kinase activity assay; conditions: Compound concentration 10.0 uM
[12] = target: Mitogen-activated protein kinase 8 (Homo sapiens) (UniProt P45983); assay: JNK1alpha1 (h) Upstate kinase activity assay; conditions: Compound concentration 10.0 uM
Mitogen-activated protein kinase 8 (Homo sapiens), sequence (P45983 whole entry): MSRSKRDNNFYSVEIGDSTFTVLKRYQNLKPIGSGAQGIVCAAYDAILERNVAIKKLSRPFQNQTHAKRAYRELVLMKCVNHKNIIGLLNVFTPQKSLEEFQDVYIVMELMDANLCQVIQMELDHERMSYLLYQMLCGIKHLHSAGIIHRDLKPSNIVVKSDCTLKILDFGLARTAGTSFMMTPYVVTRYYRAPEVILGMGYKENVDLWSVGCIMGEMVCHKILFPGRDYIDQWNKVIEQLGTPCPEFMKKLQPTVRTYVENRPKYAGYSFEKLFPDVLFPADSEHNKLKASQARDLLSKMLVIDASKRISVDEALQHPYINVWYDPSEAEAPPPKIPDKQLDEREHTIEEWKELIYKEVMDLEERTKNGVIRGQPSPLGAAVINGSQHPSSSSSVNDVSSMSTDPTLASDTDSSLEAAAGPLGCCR

[13] = target: Serine/threonine-protein kinase MARK2 (Homo sapiens) (UniProt Q7KZI7); assay: PAR-1Balpha (h) Upstate kinase activity assay; conditions: Compound concentration 10.0 uM
[14] = target: Receptor-type tyrosine-protein kinase FLT3 (Homo sapiens) (UniProt P36888); conditions: Compound concentration 10.0 uM
[15] = target: Tyrosine-protein kinase receptor UFO (Homo sapiens) (UniProt P30530); assay: Axl (h) Upstate kinase activity assay; conditions: Compound concentration 10.0 uM
[16] = target: T2, Aurora kinase A (Homo sapiens) (UniProt O14965); assay: Aurora A (h) Upstate kinase activity assay; conditions: Compound concentration 10.0 uM
T2 sequence (whole entry): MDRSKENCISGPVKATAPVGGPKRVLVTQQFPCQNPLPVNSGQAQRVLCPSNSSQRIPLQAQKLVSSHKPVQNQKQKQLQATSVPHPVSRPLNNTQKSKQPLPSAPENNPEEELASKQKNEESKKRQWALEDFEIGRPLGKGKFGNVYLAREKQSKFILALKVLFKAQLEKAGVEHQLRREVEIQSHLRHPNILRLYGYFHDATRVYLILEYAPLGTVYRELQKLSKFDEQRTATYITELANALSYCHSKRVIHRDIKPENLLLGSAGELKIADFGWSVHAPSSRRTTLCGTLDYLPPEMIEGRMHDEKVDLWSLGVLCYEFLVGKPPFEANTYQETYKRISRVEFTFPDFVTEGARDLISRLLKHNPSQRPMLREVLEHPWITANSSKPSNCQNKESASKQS

[17] = target: Protein kinase C zeta type (Homo sapiens) (UniProt Q05513); assay: PKCzeta (h) Upstate kinase activity assay; conditions: Compound concentration 10.0 uM
Protein kinase C zeta type (Homo sapiens), sequence (Q05513 whole entry): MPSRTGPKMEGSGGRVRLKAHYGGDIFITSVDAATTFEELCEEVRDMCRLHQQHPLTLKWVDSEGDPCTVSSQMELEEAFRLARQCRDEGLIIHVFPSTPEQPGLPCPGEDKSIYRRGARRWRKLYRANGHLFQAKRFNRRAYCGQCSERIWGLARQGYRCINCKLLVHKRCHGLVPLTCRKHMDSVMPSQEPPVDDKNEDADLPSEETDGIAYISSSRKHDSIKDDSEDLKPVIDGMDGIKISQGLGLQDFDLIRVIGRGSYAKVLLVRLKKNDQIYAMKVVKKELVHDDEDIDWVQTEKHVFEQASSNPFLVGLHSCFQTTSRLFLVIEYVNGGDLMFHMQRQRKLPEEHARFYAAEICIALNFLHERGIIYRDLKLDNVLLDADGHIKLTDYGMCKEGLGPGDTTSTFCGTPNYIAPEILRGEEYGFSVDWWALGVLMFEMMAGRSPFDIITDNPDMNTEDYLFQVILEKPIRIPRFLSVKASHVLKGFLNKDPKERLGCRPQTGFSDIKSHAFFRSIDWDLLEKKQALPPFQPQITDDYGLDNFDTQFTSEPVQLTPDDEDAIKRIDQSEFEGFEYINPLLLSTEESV

[18] = target: CDK7/Cyclin H/MNAT1 (Homo sapiens) (UniProt P51946+P50613+P51948); assay: CDK7/ cyclin H/ MATI (h) Upstate kinase activity assay; assay type: protein-complex assay; conditions: Compound concentration 10.0 uM
[19] = target: ALK tyrosine kinase receptor (Homo sapiens) (UniProt Q9UM73); assay: ALK (h) Upstate kinase activity assay; conditions: Compound concentration 10.0 uM
ALK tyrosine kinase receptor (Homo sapiens), sequence (Q9UM73 19-1620 limits assumed): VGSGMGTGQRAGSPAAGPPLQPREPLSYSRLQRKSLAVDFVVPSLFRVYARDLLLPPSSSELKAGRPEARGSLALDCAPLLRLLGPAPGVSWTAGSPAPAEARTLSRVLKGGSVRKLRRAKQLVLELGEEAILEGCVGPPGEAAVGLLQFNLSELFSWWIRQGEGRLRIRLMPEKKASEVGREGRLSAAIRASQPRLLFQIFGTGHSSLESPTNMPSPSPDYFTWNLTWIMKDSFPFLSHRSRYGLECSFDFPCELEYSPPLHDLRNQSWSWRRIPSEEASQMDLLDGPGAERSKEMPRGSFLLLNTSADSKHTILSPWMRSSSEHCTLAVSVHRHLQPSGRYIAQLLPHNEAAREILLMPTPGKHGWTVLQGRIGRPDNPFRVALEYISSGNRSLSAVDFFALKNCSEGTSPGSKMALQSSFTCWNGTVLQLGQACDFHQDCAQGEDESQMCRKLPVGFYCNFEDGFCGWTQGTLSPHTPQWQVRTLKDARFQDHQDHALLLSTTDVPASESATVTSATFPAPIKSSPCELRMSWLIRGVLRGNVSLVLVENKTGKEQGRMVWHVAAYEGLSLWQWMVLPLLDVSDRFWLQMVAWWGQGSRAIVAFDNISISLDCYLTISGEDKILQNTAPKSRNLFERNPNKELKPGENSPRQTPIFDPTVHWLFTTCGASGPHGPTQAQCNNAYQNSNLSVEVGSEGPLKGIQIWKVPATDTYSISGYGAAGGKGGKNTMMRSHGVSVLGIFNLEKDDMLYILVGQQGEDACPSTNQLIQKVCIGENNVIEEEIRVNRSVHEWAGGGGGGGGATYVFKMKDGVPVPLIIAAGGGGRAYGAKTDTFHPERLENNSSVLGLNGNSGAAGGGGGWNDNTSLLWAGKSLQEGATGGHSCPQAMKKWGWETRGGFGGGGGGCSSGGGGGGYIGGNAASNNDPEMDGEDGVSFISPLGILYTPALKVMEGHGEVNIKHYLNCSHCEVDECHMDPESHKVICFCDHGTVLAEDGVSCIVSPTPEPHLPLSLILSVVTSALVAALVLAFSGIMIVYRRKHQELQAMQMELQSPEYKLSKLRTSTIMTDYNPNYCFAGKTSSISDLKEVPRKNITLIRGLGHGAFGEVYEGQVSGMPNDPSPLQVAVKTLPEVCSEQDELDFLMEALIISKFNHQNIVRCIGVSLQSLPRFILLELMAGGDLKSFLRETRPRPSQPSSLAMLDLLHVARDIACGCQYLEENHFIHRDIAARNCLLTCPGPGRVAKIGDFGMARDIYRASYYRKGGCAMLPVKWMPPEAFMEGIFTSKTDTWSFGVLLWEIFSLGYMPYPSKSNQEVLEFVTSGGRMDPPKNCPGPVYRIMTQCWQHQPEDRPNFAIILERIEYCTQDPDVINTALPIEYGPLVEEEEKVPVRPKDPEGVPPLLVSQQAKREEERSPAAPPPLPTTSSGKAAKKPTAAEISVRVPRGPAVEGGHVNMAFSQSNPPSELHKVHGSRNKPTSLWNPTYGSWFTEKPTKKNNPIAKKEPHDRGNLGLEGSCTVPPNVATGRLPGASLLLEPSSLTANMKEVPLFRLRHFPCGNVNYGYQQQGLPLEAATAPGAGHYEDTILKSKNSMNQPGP

Cn1cc(Cl)c2c(Oc3c(F)cc(Nc4cc(Cl)nc(N)n4)cc3F)ccnc21 [BAY-4900]
residual activity [1]: 84%

Cc1c[nH]c2nccc(Oc3c(F)cc(Nc4cc(Cl)nc(N)n4)cc3F)c12 [BAY-549]
IC50 [2]: 0.065 µM (active) | inhibition [3]: 17% | inhibition [4]: 61% | inhibition [5]: 16% | inhibition [6]: 28% | TGI (PANC-1; Homo sapiens, PANC-1): 45 µM | CC50 (PANC-1; Homo sapiens, PANC-1, read-out: LC50 (the source's name)): > 100 µM | Mean % growth (n = 2) for 10.0 µM probe concentration (PANC-1; ± SEM 1 % growth): 55% | Mean % growth (n = 2) for 1.0 µM probe concentration (PANC-1; ± SEM 2 % growth): 87% | Mean % growth (n = 2) for 0.1 µM probe concentration (PANC-1; ± SEM 3 % growth): 86% | Mean % growth (n = 2) for 0.01 µM probe concentration (PANC-1; ± SEM 8 % growth): 98% | Mean % growth (n = 2) for 100.0 µM probe concentration (PANC-1; ± SEM 9 % growth): -31% | inhibition [7]: 33% | inhibition [8]: 65% | inhibition [9]: 33% | inhibition [10]: -1% | inhibition [11]: -6% | inhibition [12]: 22% | inhibition [13]: 33% | inhibition [14]: 98% | inhibition [15]: 85% | inhibition [16]: 77% | inhibition [17]: -7% | inhibition [18]: 57% | inhibition [19]: 78%
